Results taken from patent US12594268B2, “Methods of treating Fabry disease in patients having a mutation in the GLA gene” (Amicus Therapeutics, Inc., priority 2018, dated 2026).
Where a chain is given by its changes, count along the chain named.

Columns and labels:
Format in all cases: cell-based
[1] = molecular target: T1, α-Gal A mutant form Q250K (Homo sapiens, UniProt P06280, Q250K); test: α-Gal A activity in lysates of transfected HEK-293 cells, Q250K
T1 construct: expressed in transfected cells; host or cells: HEK-293
T1 sequence (P06280 32-429 Q250K): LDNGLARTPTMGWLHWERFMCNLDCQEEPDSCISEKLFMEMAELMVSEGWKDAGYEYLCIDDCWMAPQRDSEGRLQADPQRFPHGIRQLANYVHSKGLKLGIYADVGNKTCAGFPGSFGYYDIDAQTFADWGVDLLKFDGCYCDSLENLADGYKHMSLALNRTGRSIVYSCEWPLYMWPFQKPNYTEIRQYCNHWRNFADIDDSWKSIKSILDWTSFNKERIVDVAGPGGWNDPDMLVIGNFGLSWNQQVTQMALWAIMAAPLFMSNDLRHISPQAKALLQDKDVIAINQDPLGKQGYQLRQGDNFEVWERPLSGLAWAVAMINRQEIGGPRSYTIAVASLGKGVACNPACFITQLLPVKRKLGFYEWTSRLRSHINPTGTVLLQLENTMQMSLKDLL
Procedure: (§1) Baseline and 10 μM migalastat α-Gal A activity: Differences in the α-Gal A activity between lysates incubated in the absence and presence of 10 μM migalastat were determined using a one-tailed, Mann Whitney U test; an increase at 10 μM migalastat with a p<0.05 was considered significant.
(§2) 10 μM migalastat α-Gal A activity (% WT)=(α-Gal A activity in mutant transfected cell lysates incubated with 10 μM migalastat÷α-Gal A activity in wild-type transfected cell lysates without migalastat)*100.
(§3) Absolute increase (% WT)=is the 10 μM migalastat α-Gal A activity (% WT) minus the baseline α-Gal A activity (% WT).
(§4) Relative increase is the 10 μM migalastat α-Gal A activity in mutant transfected cell lysates÷baseline α-Gal A activity in mutant transfected cell lysates incubated without migalastat.

α-Gal A mutant form N34H = molecular target: T2, α-Gal A mutant form N34H (Homo sapiens, UniProt P06280, N34H); test: α-Gal A activity in lysates of transfected HEK-293 cells, N34H
T2 construct: expressed in transfected cells; host or cells: HEK-293
T2 sequence (P06280 32-429 N34H): T1 sequence (P06280 32-429 Q250K) with N3H, K219Q
Procedure: as §1, §2, §3, §4

[2] = molecular target: T3, α-Gal A mutant form A156S (Homo sapiens, UniProt P06280, A156S); test: α-Gal A activity in lysates of transfected HEK-293 cells, A156S
T3 construct: expressed in transfected cells; host or cells: HEK-293
T3 sequence (P06280 32-429 A156S): T1 sequence (P06280 32-429 Q250K) with A125S, K219Q
Procedure: as §1, §2, §3, §4

[3] = molecular target: T4, α-Gal A mutant form P259Q (Homo sapiens, UniProt P06280, P259Q); test: α-Gal A activity in lysates of transfected HEK-293 cells, P259Q
T4 construct: expressed in transfected cells; host or cells: HEK-293
T4 sequence (P06280 32-429 P259Q): T1 sequence (P06280 32-429 Q250K) with K219Q, P228Q
Procedure: as §1, §2, §3, §4

[4] = molecular target: T5, α-Gal A mutant form E338V (Homo sapiens, UniProt P06280, E338V); test: α-Gal A activity in lysates of transfected HEK-293 cells, E338V
T5 construct: expressed in transfected cells; host or cells: HEK-293
T5 sequence (P06280 32-429 E338V): T1 sequence (P06280 32-429 Q250K) with K219Q, E307V
Procedure: as §1, §2, §3, §4

[5] = 10 μM migalastat minus baseline
[6] = 10 μM migalastat ÷ baseline activity
[7] = HEK-293 lysates, 10 μM migalastat, 5 days, mean ± SEM

OC[C@H]1NC[C@H](O)[C@@H](O)[C@H]1O [migalastat, (2R,3S,4R,5S)-2-(hydroxymethyl) piperdine-3,4,5-triol]
Absolute increase (% WT) [1, 5]: 25.5 % WT | Relative increase [1, 6]: 2.58 | 10 nM migalastat α-Gal A activity ([1]; HEK-293 lysates, 10 nM migalastat as printed, 5 days, mean ± SEM): 11325 ± 1111 nmol/mg/h | 10 μM migalastat α-Gal A activity (% WT) [1, 7]: 41.6 ± 3.1 % WT | Absolute increase (% WT) (α-Gal A mutant form N34H; 10 μM migalastat minus baseline (baseline BLD)): 3.6 % WT | 10 μM migalastat α-Gal A activity (% WT) (α-Gal A mutant form N34H; [7]): 3.6 ± 0.2 % WT | 10 μM migalastat α-Gal A activity (α-Gal A mutant form N34H; HEK-293 lysates, 10 μM migalastat, 5 days, mean ± SEM, baseline BLD): 1414 ± 100 nmol/mg/h | Absolute increase (% WT) [2, 5]: 18.4 % WT | Relative increase [2, 6]: 1.29 | 10 μM migalastat α-Gal A activity [2, 7]: 31597 ± 2293 nmol/mg/h | 10 μM migalastat α-Gal A activity (% WT) [2, 7]: 85.1 ± 53 % WT | Absolute increase (% WT) [3, 5]: 36.1 % WT | Relative increase [3, 6]: 1.90 | 10 μM migalastat α-Gal A activity [3, 7]: 25935 ± 2020 nmol/mg/h | 10 μM migalastat α-Gal A activity (% WT) [3, 7]: 73.6 ± 5.0 % WT | Absolute increase (% WT) [4, 5]: 24.7 % WT | Relative increase [4, 6]: 1.83 | 10 μM migalastat α-Gal A activity [4, 7]: 21807 ± 845 nmol/mg/h | 10 μM migalastat α-Gal A activity (% WT) [4, 7]: 54.8 ± 2.2 % WT
